Measurements as given in ChEMBL document CHEMBL1158814, “Lehualides A-D, metabolites from a Hawaiian sponge of the genus Plakortis” (J Nat Prod, 2005).
≈ marks a conversion by molar mass, not a printed value.

Experiments:
[1] = Toxicity against brine shrimp; format: organism-based; details: artemia, in vivo; read-out: LD50 (the source's name)
[2] = Cytotoxicity against human IGROV-ET cells; format: functional
K562 = test: Cytotoxicity against human K562 cells; format: functional

Row | Compound | LC50 [1] | GI50 [2] | GI50 (K562)
1 | COc1c(O)c(C)c(C/C=C(\C)CC/C=C(/C)C/C(C)=C/Cc2ccccc2)oc1=O [LEHUALIDE A] | 50 µg/mL (≈ 118 µM) |  | 
2 | COc1oc(C/C=C(\C)CC/C=C(/C)C/C(C)=C/Cc2ccccc2)c(C)c(=O)c1OC [LEHUALIDE B] | 15 µg/mL (≈ 34.4 µM) | 830 nM | 
3 | COc1oc(C/C=C(\C)CCCCCCCCCSC(C)=O)c(C)c(=O)c1OC [LEHUALIDE C] | 15 µg/mL (≈ 35.3 µM) |  | 
4 | COc1oc(C/C=C(\C)CCCCCCCCCS)c(C)c(=O)c1OC [LEHUALIDE D] | 15 µg/mL (≈ 39.2 µM) | 730 nM | 230 nM
